pIC50: −log10 of the molar value.
Experiments:
[1] = Inhibition of protein phosphatase 1 (PP1) was determined by standard phosphorylase inhibition assay; parameters: species or system Oryctolagus cuniculus
[2] = Inhibition of protein phosphatase 2A (PP2A) was determined by standard phosphorylase inhibition assay; parameters: species or system Oryctolagus cuniculus

Row | pIC50 [1] | pIC50 [2] | SMILES
1 | 3.89 | 4.00 | CC[C@@H](C)CC[C@H](O)[C@H](C)C(=O)C[C@@H](O)[C@H](OC)[C@H](OC(=O)C[C@@H](O)C1=C(C)C(=O)OC1=O)C(C)C
2 | 5.32 | 5.48 | CO[C@@H](CO)[C@H](OC(=O)C[C@@H](O)C1=C(C)C(=O)OC1=O)C(C)C

Row | SMILES | pIC50 [1] | pIC50 [2]
3 | CO[C@H]([C@H](O)CC(=O)[C@@H](C)[C@@H](O)CC[C@@H](C)[C@@H]1O[C@]2(CC[C@@H](C)[C@H](CC[C@H](C)C(C)=O)O2)CC[C@@H]1C)[C@H](OC(=O)C[C@@H](O)C1=C(C)C(=O)OC1=O)C(C)C [TAUTOMYCIN] | 6.72 | 6.05
